This is an account of results in US8658646B2, “Pyrrolopyrazine kinase inhibitors” (Hoffmann-LaRoche Inc., priority 2011, dated 2014).

Molecules are shown by their SMILES.

The assay addresses T1, recombinant human SYK360-635 (Homo sapiens, UniProt P43405).
T1 construct: made in house
As to the kind of experiment: Determination of IC50 of Spleen Tyrosine Kinase (SYK) inhibition, 33P ATP filtration assay. The assay is classed as biochemical. As to conditions: SYK aa 360-635 0.5 nM; ATP 20 μM, peptide 5 μM, 0.1% BSA; read-out: SYK_ENZYME_FILTRATION/v1, BSA.
For `Cc1ccc2c(-c3cnc4[nH]cc(C(=O)NC(C)(C)CO)c4n3)nn(C)c2c1` [Example I-368, 2-(1,6-Dimethyl-1H-indazol-3-yl)-5H-pyrrolo[2,3-b]pyrazine-7-carboxylic acid (2-hydroxy-1,1-dimethyl-ethyl)-amide], the IC50 is 8.95 nM. On to `Cc1cccc2c(-c3cnc4[nH]cc(C(=O)NC(C)(C)C)c4n3)n[nH]c12` [Example I-369, 2-(7-Methyl-1H-indazol-3-yl)-5H-pyrrolo[2,3-b]pyrazine-7-carboxylic acid tert-butylamide], for which the IC50 stood at 8 nM. The result for `Cn1nc(-c2cnc3[nH]cc(C(=O)NC(C)(C)C)c3n2)c2ccc(OC(F)(F)F)cc21` [Example I-370, 2-(1-Methyl-6-trifluoromethoxy-1H-indazol-3-yl)-5H-pyrrolo[2,3-b]pyrazine-7-carboxylic acid tert-butylamide] reads 41 nM.

With `Cn1nc(-c2cnc3[nH]cc(C(=O)NC(C)(C)CO)c3n2)c2ccc(OC(F)(F)F)cc21` [Example I-371, 2-(1-Methyl-6-trifluoromethoxy-1H-indazol-3-yl)-5H-pyrrolo[2,3-b]pyrazine-7-carboxylic acid (2-hydroxy-1,1-dimethyl-ethyl)-amide], the IC50 worked out at 23.1 nM. To `Cc1cccc2c(-c3cnc4[nH]cc(C(=O)NC(C)(C)CO)c4n3)n[nH]c12` [Example I-372, 2-(7-Methyl-1H-indazol-3-yl)-5H-pyrrolo[2,3-b]pyrazine-7-carboxylic acid (2-hydroxy-1,1-dimethyl-ethyl)-amide] belongs 5.12 nM; to `Cn1nc(-c2cnc3[nH]cc(C(=O)NC(C)(C)C)c3n2)c2cccnc21` [Example I-373, 2-(1-Methyl-1H-pyrazolo[3,4-b]pyridin-3-yl)-5H-pyrrolo[2,3-b]pyrazine-7-carboxylic acid tert-butylamide], 19 nM. The result for `Cn1nc(-c2cnc3[nH]cc(C(=O)NC4(CO)CC4)c3n2)c2ccc(F)cc21` [Example I-374, 2-(6-Fluoro-1-methyl-1H-indazol-3-yl)-5H-pyrrolo[2,3-b]pyrazine-7-carboxylic acid (1-hydroxymethyl-cyclopropyl)-amide] reads 7.65 nM. The result for `Cn1nc(-c2cnc3[nH]cc(C(=O)NC4(C)CCC4)c3n2)c2ccc(F)cc21` [Example I-376, 2-(6-Fluoro-1-methyl-1H-indazol-3-yl)-5H-pyrrolo[2,3-b]pyrazine-7-carboxylic acid (1-methyl-cyclobutyl)-amide] reads 2.82 nM; that for `Cn1nc(-c2cnc3[nH]cc(C(=O)NC(C)(C)CN)c3n2)c2ccc(F)cc21` [Example I-379, 2-(6-Fluoro-1-methyl-1H-indazol-3-yl)-5H-pyrrolo[2,3-b]pyrazine-7-carboxylic acid (2-amino-1,1-dimethyl-ethyl)-amide], 145 nM; that for `C#CC(C)(C)NC(=O)c1c[nH]c2ncc(-c3nn(C)c4cc(F)ccc34)nc12` [Example I-380, 2-(6-Fluoro-1-methyl-1H-indazol-3-yl)-5H-pyrrolo[2,3-b]pyrazine-7-carboxylic acid (1,1-dimethyl-prop-2-ynyl)-amide], 9.95 nM. `Cn1nc(-c2cnc3[nH]cc(C(=O)NC(C)(C)C(=O)OC(C)(C)C)c3n2)c2ccc(F)cc21` [Example I-381, 2-{[2-(6-Fluoro-1-methyl-1H-indazol-3-yl)-5H-pyrrolo[2,3-b]pyrazine-7-carbonyl]-amino}-2-methyl-propionic acid tert-butyl ester]: the IC50 was found to be 716 nM. The result for `Cn1nc(-c2cnc3[nH]cc(C(=O)NC(C)(C)C(=O)O)c3n2)c2ccc(F)cc21` [Example I-382, 2-{[2-(6-Fluoro-1-methyl-1H-indazol-3-yl)-5H-pyrrolo[2,3-b]pyrazine-7-carbonyl]-amino}-2-methyl-propionic acid] reads 945 nM. To `Cn1nc(-c2cnc3[nH]cc(C(=O)NC(C)(CO)CO)c3n2)c2ccc(F)cc21` [Example I-383, 2-(6-Fluoro-1-methyl-1H-indazol-3-yl)-5H-pyrrolo[2,3-b]pyrazine-7-carboxylic acid (2-hydroxy-1-hydroxymethyl-1-methyl-ethyl)-amide] belongs 8.05 nM; to `Cn1nc(-c2cnc3[nH]cc(C(=O)NC4(C)CCCC4)c3n2)c2ccc(F)cc21` [Example I-384, 2-(6-Fluoro-1-methyl-1H-indazol-3-yl)-5H-pyrrolo[2,3-b]pyrazine-7-carboxylic acid (1-methyl-cyclopentyl)-amide], 3.75 nM; to `Cn1nc(-c2cnc3[nH]cc(C(=O)NC4(C)COC4)c3n2)c2ccc(F)cc21` [Example I-386, 2-(6-Fluoro-1-methyl-1H-indazol-3-yl)-5H-pyrrolo[2,3-b]pyrazine-7-carboxylic acid (3-methyl-oxetan-3-yl)-amide], 104 nM. To `Cn1nc(-c2cnc3[nH]cc(C(=O)NC4(C#N)CC4)c3n2)c2ccc(F)cc21` [Example I-387, 2-(6-Fluoro-1-methyl-1H-indazol-3-yl)-5H-pyrrolo[2,3-b]pyrazine-7-carboxylic acid (1-cyano-cyclopropyl)-amide] belongs 31.7 nM. As for `Cn1nc(-c2cnc3[nH]cc(C(=O)NC(C)(C)c4ccccc4)c3n2)c2ccc(Cl)cc21` [Example I-388, 2-(6-Chloro-1-methyl-1H-indazol-3-yl)-5H-pyrrolo[2,3-b]pyrazine-7-carboxylic acid (1-methyl-1-phenyl-ethyl)-amide], the IC50 was determined as 63.8 nM. The result for `C[C@H](NC(=O)c1c[nH]c2ncc(-c3nn(C)c4cc(Cl)ccc34)nc12)c1ccccc1` [Example I-389, 2-(6-Chloro-1-methyl-1H-indazol-3-yl)-5H-pyrrolo[2,3-b]pyrazine-7 carboxylic acid ((S)-1-phenyl-ethyl)-amide] reads 183 nM. To `Cn1nc(-c2cnc3[nH]cc(C(=O)NC(C)(C)C(F)(F)F)c3n2)c2ccc(Cl)cc21` [Example I-390, 2-(6-Chloro-1-methyl-1H-indazol-3-yl)-5H-pyrrolo[2,3-b]pyrazine-7-carboxylic acid (2,2,2-trifluoro-1,1-dimethyl-ethyl)-amide] belongs 42.4 nM; to `CCC(C)(C)NC(=O)c1c[nH]c2ncc(-c3nn(C)c4cc(Cl)ccc34)nc12` [Example I-391, 2-(6-Chloro-1-methyl-1H-indazol-3-yl)-5H-pyrrolo[2,3-b]pyrazine-7-carboxylic acid (1,1-dimethyl-propyl)-amide], 8.68 nM.

Take `Cn1nc(-c2cnc3[nH]cc(C(=O)NC4(C)CCCCC4)c3n2)c2ccc(F)cc21` [Example I-392, 2-(6-Fluoro-1-methyl-1H-indazol-3-yl)-5H-pyrrolo[2,3-b]pyrazine-7-carboxylic acid (1-methyl-cyclohexyl)-amide]: the IC50 was 10.2 nM. The result for `Cn1nc(-c2cnc3[nH]cc(C(=O)NC(C)(C)C(C)(C)N)c3n2)c2ccc(F)cc21` [Example I-393, 2-(6-Fluoro-1-methyl-1H-indazol-3-yl]-5H-pyrrolo[2,3-b]pyrazine-7-carboxylic acid (2-amino-1,1,2-trimethyl-propyl)-amide] reads 492 nM; that for `Cn1nc(-c2cnc3[nH]cc(C(=O)NC(C)(C)C)c3n2)c2ccc(C#N)cc21` [Example I-394, 2-(6-Cyano-1-methyl-1H-indazol-3-yl)-5H-pyrrolo[2,3-b]pyrazine-7-carboxylic acid tert-butylamide], 4.38 nM; that for `Cn1nc(-c2cnc3[nH]cc(C(=O)NC4(C)CC4)c3n2)c2ccc(Cl)cc21` [Example I-395, 2-(6-Chloro-1-methyl-1H-indazol-3-yl)-5H-pyrrolo[2,3-b]pyrazine-7-carboxylic acid (1-methyl-cyclopropyl)-amide], 2.27 nM. To `Cn1nc(-c2cnc3[nH]cc(C(=O)Nc4ccccc4)c3n2)c2ccc(Cl)cc21` [Example I-396, 2-(6-Chloro-1-methyl-1H-indazol-3-yl)-5H-pyrrolo[2,3-b]pyrazine-7-carboxylic acid phenylamide] belongs more than 10000 nM; to `Cn1nc(-c2cnc3[nH]cc(C(=O)NC(C)(C)CN)c3n2)c2ccc(Cl)cc21` [Example I-397, 2-(6-Chloro-1-methyl-1H-indazol-3-yl)-5H-pyrrolo[2,3-b]pyrazine-7-carboxylic acid (2-amino-1,1-dimethyl-ethyl)-amide], 219 nM; to `Cn1nc(-c2cnc3[nH]cc(C(=O)NC(C)(C)CO)c3n2)c2ccc(C#N)cc21` [Example I-398, 2-(6-Cyano-1-methyl-1H-indazol-3-yl)-5H-pyrrolo[2,3-b]pyrazine-7-carboxylic acid (2-hydroxy-1,1-dimethyl-ethyl)-amide], 12.2 nM. Take `Cn1nc(-c2cnc3[nH]cc(C(=O)NC(C)(C)CCO)c3n2)c2ccc(F)cc21` [Example I-400, 2-(6-Fluoro-1-methyl-1H-indazol-3-yl)-5H-pyrrolo[2,3-b]pyrazine-7-carboxylic acid (3-hydroxy-1,1-dimethyl-propyl)-amide]: the IC50 is 8.57 nM. The result for `Cn1nc(-c2cnc3[nH]cc(C(=O)NC(C)(C)C4CC4)c3n2)c2ccc(Cl)cc21` [Example I-401, 2-(6-Chloro-1-methyl-1H-indazol-3-yl)-5H-pyrrolo[2,3-b]pyrazine-7-carboxylic acid (1-cyclopropyl-1-methyl-ethyl)-amide] reads 18.5 nM; that for `Cn1nc(-c2cnc3[nH]cc(C(=O)N[C@H]4CC[C@@H](N)CC4)c3n2)c2cc(OC(F)F)ccc21` [Example I-402, 2-(5-Difluoromethoxy-1-methyl-1H-indazol-3-yl)-5H-pyrrolo[2,3-b]pyrazine-7-carboxylic acid (cis-4-amino-cyclohexyl)-amide], 101 nM. To `Cn1nc(-c2cnc3[nH]cc(C(=O)NC4CCCC(N)C4)c3n2)c2ccc(Cl)cc21` (centres unmarked) [Example I-403, 2-(6-Chloro-1-methyl-1H-indazol-3-yl)-5H-pyrrolo[2,3-b]pyrazine-7-carboxylic acid (3-amino-cyclohexyl)-amide] belongs 13.6 nM; to `Cn1nc(-c2cnc3[nH]cc(C(=O)Nc4cccc(C#N)c4)c3n2)c2ccc(Cl)cc21` [Example I-404, 2-(6-Chloro-1-methyl-1H-indazol-3-yl)-5H-pyrrolo[2,3-b]pyrazine-7-carboxylic acid (3-cyano-phenyl)-amide], more than 10000 nM.
